The text below walks through data of patent publication US8946282B2, “Indolin-2-one derivatives as protein kinase inhibitors” (Annji Pharmaceutical Co., Ltd., priority 2012, dated 2015).

For series [1], the target named is aurora B (Homo sapiens, UniProt Q96GD4). Description: radioisotope-based P81 filter-binding assay, aurora B kinase. The series is classed as biochemical. The conditions noted are these: averaged from two independent dose-response curves; read-out: Enzyme assay IC50 Aur B. The method, then:
(§1) Compounds of formula (I)-(IV) were evaluated for abilities in inhibiting protein kinases aurora B and FLT-3 activity using radioisotope-based P81 filter-binding assay (Table 1).

Series [2] concerns MV4-11 human acute myelomonocytic leukemia cells. Description: anti-proliferation, SRB colorimetric assay, MV4-11. Format: cell-based. As to conditions: concentration required for 50% growth inhibition. As to the method: HCT116 human colorectal carcinoma cells (Table 3), HepG2 human hepatocellular carcinoma cells (Table 4), and MV4-11 human acute myelomonocytic leukemia cells (Table 5). Cells were treated with the test compound and the concentration required for 50% growth inhibition (IC50) determined by sulfomodamine B (SRB) colorimetric assay.
A general note: In SRB staining, fixed cells bind dye roughly in proportion to their protein.

Series [3] deals with T1, FLT-3 (Homo sapiens, UniProt P36888).
T1 sequence (P36888 27-993): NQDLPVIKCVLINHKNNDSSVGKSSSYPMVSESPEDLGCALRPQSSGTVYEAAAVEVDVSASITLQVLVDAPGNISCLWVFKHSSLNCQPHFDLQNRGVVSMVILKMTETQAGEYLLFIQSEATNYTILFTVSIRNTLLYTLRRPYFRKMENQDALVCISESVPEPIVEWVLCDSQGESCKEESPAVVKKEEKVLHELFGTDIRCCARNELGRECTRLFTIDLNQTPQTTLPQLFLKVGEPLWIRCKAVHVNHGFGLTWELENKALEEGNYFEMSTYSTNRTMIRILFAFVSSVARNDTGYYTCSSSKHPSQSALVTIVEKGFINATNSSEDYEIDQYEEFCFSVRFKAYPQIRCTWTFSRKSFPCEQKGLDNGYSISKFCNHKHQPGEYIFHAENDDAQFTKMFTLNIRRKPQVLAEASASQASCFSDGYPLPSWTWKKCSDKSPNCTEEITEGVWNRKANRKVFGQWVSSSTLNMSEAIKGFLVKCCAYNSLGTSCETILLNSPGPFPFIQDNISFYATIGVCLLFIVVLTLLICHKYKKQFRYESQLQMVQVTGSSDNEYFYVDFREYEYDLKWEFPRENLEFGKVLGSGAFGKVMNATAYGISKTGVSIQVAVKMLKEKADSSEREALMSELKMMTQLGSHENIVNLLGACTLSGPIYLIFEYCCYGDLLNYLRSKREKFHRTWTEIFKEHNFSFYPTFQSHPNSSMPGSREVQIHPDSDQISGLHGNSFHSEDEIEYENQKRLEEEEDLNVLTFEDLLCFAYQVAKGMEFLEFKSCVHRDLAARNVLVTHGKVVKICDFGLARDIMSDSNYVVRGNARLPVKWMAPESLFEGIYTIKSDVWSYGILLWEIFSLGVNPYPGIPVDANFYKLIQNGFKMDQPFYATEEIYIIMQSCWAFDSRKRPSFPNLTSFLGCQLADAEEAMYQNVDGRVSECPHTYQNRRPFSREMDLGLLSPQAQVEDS
In words: radioisotope-based P81 filter-binding assay, FLT-3 kinase. Format: biochemical. As to conditions: averaged from two independent dose-response curves; read-out: Enzyme assay IC50 FLT-3. As to the method: as §1

Sequence of aurora B (Q96GD4 whole entry): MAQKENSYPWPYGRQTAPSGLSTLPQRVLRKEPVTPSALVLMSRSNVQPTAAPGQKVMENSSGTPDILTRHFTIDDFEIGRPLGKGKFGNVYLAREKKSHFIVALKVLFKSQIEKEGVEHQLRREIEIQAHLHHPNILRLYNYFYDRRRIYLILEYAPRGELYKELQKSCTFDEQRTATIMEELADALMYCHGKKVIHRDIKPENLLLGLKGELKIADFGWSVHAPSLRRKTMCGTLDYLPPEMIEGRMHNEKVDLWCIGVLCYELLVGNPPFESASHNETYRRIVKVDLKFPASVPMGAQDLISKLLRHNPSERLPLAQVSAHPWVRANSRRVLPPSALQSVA

`O=C(NC(=O)c1ccc(Cl)c(C(F)(F)F)c1)Nc1ccc2c(c1)NC(=O)/C2=C\c1ccc[nH]1` [D28, (Z)—N-(3-((1H-pyrrol-2-yl)methylene)-2-oxoindolin-6-ylcarbamoyl)-4-chloro-3-(trifluoromethyl)benzamide]: the melting point is 280 to 285 °C (dec.). Besides, the IC50 in series [1] worked out at 15 nM. In addition, inhibition in series [2] was half-maximal at 0.79 nM (IC50). In addition, the IC50 in series [3] amounted to 385 nM.

As for `O=C1Nc2cc(NC(=O)c3cccn(-c4ccccc4)c3=O)ccc2/C1=C/c1ccc[nH]1` [D105, (Z)—N-(3-((1H-pyrrol-2-yl)methylene)-2-oxoindolin-6-yl)-2-oxo-1-phenyl-1,2-dihydropyridine-3-carboxamide], the melting point is > 300 °C. For the same compound, the IC50 in series [1] stood at 87.4 nM. Besides, half-maximal inhibition in series [2] (IC50) required 0.13 nM. The IC50 in series [3] was 48.4 nM.

Take `COc1ccc(-n2cccc(C(=O)Nc3ccc4c(c3)NC(=O)/C4=C\c3ccc[nH]3)c2=O)cc1` [D106, (Z)—N-(3-((1H-pyrrol-2-yl)methylene)-2-oxoindolin-6-yl)-1-(4-methoxyphenyl)-2-oxo-1,2-dihydropyridine-3-carboxamide]: the melting point is > 300 °C. Besides, the IC50 in series [1] was 209 nM. In addition, the IC50 in series [2] was 12.6 nM. In series [3], the IC50 was > 1000 nM.

For the compound `O=C1Nc2cc(NC(=O)c3cccn(-c4ccc(Cl)cc4)c3=O)ccc2/C1=C/c1ccc[nH]1` [D108], the melting point is > 300 °C. In addition, the IC50 in series [1] is > 1000 nM. The compound also gave an IC50 in series [2] of 0.88 nM. In series [3], the IC50 came out at 26.3 nM.

Take `O=C1Nc2cc(NC(=O)c3cccn(-c4ccc(Cl)c(C(F)(F)F)c4)c3=O)ccc2/C1=C/c1ccc[nH]1` [D109, (Z)—N-(3-((1H-pyrrol-2-yl)methylene)-2-oxoindolin-6-yl)-1-(4-chloro-(3-trifluoromethyl)phenyl)-2-oxo-1,2-dihydropyridine-3-carboxamide]: the IC50 was > 1000 nM in series [1], 7.19 nM in series [2] and 77.4 nM in series [3].

As to `Cc1ccc(-n2cccc(C(=O)Nc3ccc4c(c3)NC(=O)/C4=C\c3ccc[nH]3)c2=O)cc1` [D111, (Z)—N-(3-((1H-pyrrol-2-yl)methylene)-2-oxoindolin-6-yl)-2-oxo-1-p-tolyl-1,2-dihydropyridine-3-carboxamide], the melting point is > 300 °C. In series [1], the IC50 was found to be 209 nM. This compound showed an IC50 in series [2] of 3.42 nM. Also, in series [3], the IC50 came out at 37.5 nM.

`O=C1Nc2cc(NC(=O)c3cccn(-c4ccc(C(F)(F)F)cc4)c3=O)ccc2/C1=C/c1ccc[nH]1` [D112]: the melting point was > 300 °C. Also, the IC50 in series [1] is > 1000 nM. This compound also registered an IC50 in series [2] of 2.09 nM. Further, the IC50 in series [3] amounted to 137 nM.

On to `O=C1Nc2cc(NC(=O)c3cccn(-c4cccc(C(F)(F)F)c4)c3=O)ccc2/C1=C/c1ccc[nH]1` [D113], for which the melting point is > 300 °C. Further, in series [1], the IC50 was 689 nM. Moreover, the IC50 in series [2] came out at 2.78 nM. Further, the IC50 in series [3] is 134 nM.

Turning to `O=C1Nc2cc(NC(=O)c3cccn(-c4cccc(Cl)c4)c3=O)ccc2/C1=C/c1ccc[nH]1` [D114], the melting point was > 300 °C. In addition, the IC50 in series [1] is 251 nM. Moreover, in series [2], the IC50 was found to be 1.55 nM. Besides, the IC50 in series [3] was determined as 91.2 nM.

For `O=C1Nc2cc(NC(=O)c3cccn(-c4ccccc4F)c3=O)ccc2/C1=C/c1ccc[nH]1` [D115], the melting point was > 300 °C. Also, in series [1], the IC50 was determined as 138 nM. The IC50 in series [2] worked out at 6.69 nM. In addition, the IC50 in series [3] was determined as 535 nM.

With `Cn1cccc(C(=O)Nc2ccc3c(c2)NC(=O)/C3=C\c2ccc[nH]2)c1=O` [D116, (Z)—N-(3-((1H-pyrrol-2-yl)methylene)-2-oxoindolin-6-yl)-1-methyl-2-oxo-1,2-dihydropyridine-3-carboxamide], the melting point was > 300 °C. Further, the IC50 in series [1] was determined as 102 nM. Further, in series [3], the IC50 was 510 nM.

Turning to `O=C1Nc2cc(NC(=O)c3cccn(CCO)c3=O)ccc2/C1=C/c1ccc[nH]1` [D117, (Z)—N-(3-((1H-pyrrol-2-yl)methylene)-2-oxoindolin-6-yl)-1-(2-hydroxyethyl)-2-oxo-1,2-dihydropyridine-3-carboxamide], the melting point is 298 °C (dec.). Besides, the IC50 in series [1] was determined as 32.5 nM. The IC50 in series [3] turned out to be 612 nM.

With `O=C1Nc2c(NC(=O)c3cccn(-c4ccc(F)cc4)c3=O)cccc2/C1=C/c1ccc[nH]1` [D118, (Z)—N-(3-((1H-pyrol-2-yl)methylene)-2-oxoindolin-7-yl)-1-(4-fluorophenyl)-2-oxo-1,2-dihydropyridine-3-carboxamide], the melting point was > 300 °C. Moreover, the IC50 in series [1] was > 1000 nM. Moreover, in series [3], the IC50 was > 1000 nM.

Turning to `Cc1[nH]c(/C=C2\C(=O)Nc3cc(NC(=O)c4cccn(C)c4=O)ccc32)c(C)c1C(=O)O` [D124, (Z)-2,4-dimethyl-5-((6-(1-methyl-2-oxo-1,2-dihydropyridine-3-carboxamido)-2-oxoindolin-3-ylidene)methyl)-1H-pyrrole-3-carboxylic acid], the melting point was > 300 °C. Besides, the IC50 in series [1] was determined as 14.3 nM. Moreover, the IC50 in series [3] was 4.2 nM.

Regarding `Cn1cc(C(=O)Nc2ccc3c(c2)NC(=O)/C3=C\c2ccc[nH]2)c(=O)c(-c2ccc(F)cc2)c1` [D138, (Z)—N-(3-((1H-pyrrol-2-yl)methylene)-2-oxoindolin-6-yl)-5-(4-fluorophenyl)-1-methyl-4-oxo-1,4-dihydropyridine-3-carboxamide], the half-inhibitory concentration (IC50) was 94.6 nM in series [1], 17.8 nM in series [2] and > 1000 nM in series [3].

For `Cc1c[nH]cc(C(=O)Nc2ccc3c(c2)NC(=O)/C3=C\c2ccc[nH]2)c1=O` [D139, (Z)—N-(3-((1H-pyrrol-2-yl)methylene)-2-oxoindolin-6-yl)-5-methyl-4-oxo-1,4-dihydropyridine-3-carboxamide], the melting point is > 300 °C. For the same compound, in series [1], the IC50 came out at 29.2 nM. For the same compound, the IC50 in series [3] stood at 64.2 nM.

For `COc1ccc(-c2c[nH]cc(C(=O)Nc3ccc4c(c3)NC(=O)/C4=C\c3[nH]c(C)c(C(=O)O)c3C)c2=O)cc1` [D142, (Z)-5-((6-(5-(4-methoxyphenyl)-4-oxo-1,4-dihydropyridine-3-carboxamido)-2-oxoindolin-3-ylidene)methyl)-2,4-dimethyl-1H-pyrrole-3-carboxylic acid], the figures for the IC50 in series [1], in series [2] and in series [3] were 4.5 nM, 6.69 nM and 24.6 nM, respectively.

Regarding `Cc1[nH]c(/C=C2\C(=O)Nc3cc(NC(=O)c4c[nH]cc(C)c4=O)ccc32)c(C)c1C(=O)O` [D143, (Z)-2,4-dimethyl-5-((6-(5-methyl-4-oxo-1,4-dihydropyridine-3-carboxamido)-2-oxoindolin-3-ylidene)methyl)-1H-pyrrole-3-carboxylic acid], the melting point is > 300 °C. Also, the IC50 in series [1] stood at 3.7 nM. The IC50 in series [3] was found to be 194 nM.

Turning to `Cc1cc(C(=O)O)[nH]c1/C=C1\C(=O)Nc2cc(NC(=O)c3c[nH]cc(-c4ccc(F)cc4)c3=O)ccc21` [D146, (Z)-5-((6-(5-(4-fluorophenyl)-4-oxo-1,4-dihydropyridine-3-carboxamido)-2-oxoindolin-3-ylidene)methyl)-4-methyl-1H-pyrrole-2-carboxylic acid], the melting point is 243 °C. The IC50 in series [1] is > 1000 nM. Also, the IC50 in series [3] was > 1000 nM.

Turning to `Cc1[nH]c(/C=C2\C(=O)Nc3cc(NC(=O)c4c[nH]cc(-c5cc(F)cc(F)c5)c4=O)ccc32)c(C)c1CCC(=O)O` [D148, (Z)-3-(5-((6-(5-(3,5-difluorophenyl)-4-oxo-1,4-dihydropyridine-3-carboxamido)-2-oxoindolin-3-ylidene)methyl)-2,4-dimethyl-1H-pyrrol-3-yl)propanoic acid], the melting point was > 300 °C. For the same compound, the IC50 in series [1] worked out at 6.7 nM. In addition, in series [3], the IC50 was found to be 50.4 nM.

For the compound `COc1ccc(-c2c[nH]cc(C(=O)Nc3ccc4c(c3)NC(=O)/C4=C\c3[nH]c(C)c(C(=O)N4CCN(C)CC4)c3C)c2=O)cc1` [D154], the melting point is 235 °C (dec.). Further, the IC50 in series [1] is 135 nM. Moreover, the IC50 in series [3] is 1.2 nM.

The term IC50 denotes the concentration at which inhibition is half-maximal. The melting point is the temperature, or range, at which the solid turns liquid.
